Laboratory results from PMC9687805 (Biomolecules, 2022).
Where “and” joins values, the source holds several entries; their conditions need not be identical. Identical values can stand only once. Like-named read-outs stand apart in the source and are kept apart here.

Assays:
[1] = Ferric reducing antioxidant power (FRAP) assay; conditions: Trolox equivalents; n=3, 1 h, 37 °C; mean ± SEM
Procedure: The FRAP (Ferric Reducing Antioxidant Power) assay measures the ability of antioxidants to reduce the ferric 2,4,6-tripyridyl-s-triazine complex [Fe(TPTZ)2]^3+ to the intensely blue-colored ferrous complex [Fe(TPTZ)2]^2+ with an absorption maximum at λ = 593 nm. The reducing ability of a compound is an indicator of its potential antioxidant activity.
The ferric reducing ability of the compounds was determined by a previously described method as a microplate-adapted version described in [42]. 2,4,6-tris(pyridin-2-yl)-1,3,5-triazine (TPTZ), FeCl3·6H2O, Trolox, ascorbic acid and DMSO were obtained from Sigma-Aldrich Chemical Co (St. Louis, MO, USA). The FRAP reagent was prepared by mixing acetate buffer (0.3 M, pH 3.6), TPTZ (10 mM in 40 mM HCl) and FeCl3·6H2O (20 mM in distilled water) in a ratio of 10:1:1 immediately before use. Compounds were dissolved in DMSO and tested in the concentration range of 1×10^−6–1×10^−4 M. The solvent content in the reaction mixture was 4% (v/v). The test compounds (10 µL) were added to the FRAP reagent solution (240 µL) and mixed thoroughly. The reaction was carried out at 37 °C in the dark, the incubation time was 1 h. The absorbance at 600 nm was monitored spectrophotometrically by a FLUOStar OPTIMA microplate reader (BMG Labtech, Germany) at 37 °C. Trolox was used as a standard antioxidant, ascorbic acid as a reference compound. Values were obtained from four replicates of each sample and three independent experiments.
The ferric reducing ability of compounds was expressed as TE units (antioxidant activity in Trolox equivalent) with the values calculated as the ratio of the concentrations of Trolox and the test compound resulting in the same effect.

[2] = ABTS radical cation scavenging activity assay; parameters: key to ABTS•+-scavenging activity, TEAC: ratio of slopes, tested compound vs Trolox (Trolox = 1); conditions: n=3, 1 h, 30 °C; for ABTS•+-scavenging activity, TEAC: Trolox equivalent antioxidant capacity, mean ± SEM; for IC50: concentration for 50% reduction of ABTS radical cation
Procedure: Radical scavenging activity of the compounds was evaluated by the ABTS radical cation (ABTS^•+) scavenging assay showing the ability of the compounds to decolorize the ABTS^•+ solution [86] with some modifications. Trolox was used as the antioxidant standard; ascorbic acid was used as the comparison compound. All tested compounds and standards were dissolved in DMSO.
The solution of ABTS^•+ was produced by mixing 7 mM ABTS aqueous solution with 2.45 mM potassium persulfate aqueous solution in equal quantities and allowing them to react for 12–16 h at room temperature in the dark. Radical scavenging capacity of the compounds was analyzed by mixing 10 µL of compound with 240 µL of ABTS^•+ working solution in ethanol (100 µM final concentration), and after 1 h of incubation at 30 °C the decrease in absorbance was measured spectrophotometrically at 734 nm using a Bio-Rad xMark microplate UV/VIS spectrophotometer (Bio-Rad, Hercules, CA, USA). The compounds were tested in the concentration range 5 × 10^−7–1 × 10^−4 M. Ethanol blanks were run in each assay. Values were obtained from five replicates of each sample and three independent experiments.
Antioxidant activity was reported as Trolox equivalent antioxidant capacity (TEAC values), consisting of the ratio between the slopes obtained from the linear correlation for concentrations of the tested compounds and Trolox with absorbance of ABTS radical. […] The calculations were carried out using Origin 6.1 for Windows (OriginLab, Northampton, MA, USA). Results are presented as mean ± SEM calculated using GraphPad Prism version 6.05 for Windows, GraphPad Software (San Diego, CA, USA).

[3] = target: T1, equine serum BChE (Equus caballus, UniProt P81908); assay: biochemical; conditions: mean ± SEM, n = 3; for inhibition at 20 µM: read-out: Inhibitory activity against BChE, % inhibition at 20 μM, compound 20 μM, n.a. = not active; for IC50: equine serum BChE, 5 min incubation, 25 °C, pH 7.5, read-out: Inhibitory activity against BChE, IC50
T1 construct: purchased Sigma-Aldrich; host or cells: equine serum
Procedure: (§1) The assay solution consisted of 0.1 M K/Na phosphate buffer pH 7.5, 25 °C, 0.33 mM DTNB, 0.02 unit/mL AChE or BChE, and 1 mM substrate (ATCh or BTCh, respectively). Reagent blanks consisted of reaction mixtures without substrates.
(§2) Each experiment was performed in triplicate.

[4] = target: T2, Human erythrocyte AChE (Homo sapiens, UniProt P22303); assay: biochemical; conditions: for inhibition at 20 µM: read-out: Inhibitory activity against AChE, % inhibition at 20 μM; for IC50: human erythrocyte AChE, 5 min incubation, 25 °C, pH 7.5, read-out: Inhibitory activity against AChE, IC50
T2 construct: purchased Sigma-Aldrich; host or cells: human erythrocytes
Procedure: as §1, §2

[5] = system: porcine liver CES; assay: CES inhibition, 4-nitrophenyl acetate hydrolysis; conditions: compound 20 μM; mean ± SEM, n = 3; n.a. = not active
Procedure: Final enzyme and substrate (4-nitrophenyl acetate) concentrations were 0.02 unit/mL and 1 mM, respectively. Assays were carried out with a blank containing all constituents except porcine CES to assess non-enzymatic hydrolysis. Measurements were performed with a FLUOStar Optima microplate reader (BMG Labtech, Ortenberg, Germany). Compounds were dissolved in DMSO; the incubation mixture contained 2% (v/v) solvent. The primary evaluation of the inhibitory activity of the compounds was performed by determining the degree of the enzyme inhibition at a compound concentration of 20 µM. For this, a sample of the corresponding enzyme was incubated with the test compound for 5 min; then the enzyme residual activity was determined. Each experiment was performed in triplicate. […] Substrate was then added and residual enzyme activity relative to an inhibitor-free control was measured using a FLUOStar Optima microplate reader.

[6] = target: T3, EeAChE PAS (Electrophorus electricus, UniProt O42275); assay: biochemical; assay type: binding; conditions: 0.25 h; compound 20 μM, EeAChE 7 μM, propidium iodide 8 μM; n.a. = not active; read-out: % Displacement of Propidium from the EeAChE PAS at 20 μM
T3 construct: purchased Sigma-Aldrich type VI-S; host or cells: electric eel
Procedure: Electrophorus electricus (EeAChE) (electric eel, type VI-S, lyophilized powder, Sigma-Aldrich, St. Louis, MO, USA) was used owing to its high degree of purification, high activity, and lower cost than human AChE (hAChE). […] To determine the degree of displacement (% displacement) of propidium from the PAS of AChE, EeAChE (final concentration, 7 μM) was incubated with the test compound at a concentration of 20 μM in 1 mM Tris-HCl buffer pH 8.0, 25 °C, for 15 min. Then, propidium iodide solution (final concentration, 8 μM) was added, the samples were incubated for 15 min, and the fluorescence spectrum (530 nm (excitation) and 600 nm (emission)) was taken. […] The blank contained propidium iodide of the same concentration in 1 mM Tris-HCl buffer, pH 8.0 at 25 °C. The measurements were carried out in triplicate on a FLUOStar Optima microplate reader (LabTech, Ortenberg, Germany), and the results were calculated by the following formula:% Displacement = 100 − (IFAChE + Propidium + inhibitor / IFAChE + Propidium) × 100 (1) where IFAChE + Propidium is the fluorescence intensity of the propidium associated with AChE in the absence of the test compound (taken as 100%), and IFAChE + Propidium + inhibitor is the fluorescence intensity of the propidium associated with AChE in the presence of the test compound.

[7] = Metal-chelating properties by UV-Vis spectrometry in acetonitrile; assay type: physicochemical; conditions: compound 40 µM, metal 40 µM, 25 °C, red shift of absorbance
Procedure: The complexing studies were made in acetonitrile at 25 °C using a UV–vis spectrophotometer Shimadzu UV-2600 (Shimadzu Corporation, Kyoto, Japan) with wavelength ranging from 190 to 600 nm. Solutions (200 µM in acetonitrile) of the following metals compounds were prepared in volumetric flasks: FeCl2·4H2O (99%, Acros Organics by Thermo Fisher Scientific (Kandel, Germany)), CuCl2 (98%, Alfa Aesar by Thermo Fisher Scientific (Kandel, Germany)), or Zn(NO3)2·6H2O (98%, Alfa Aesar by Thermo Fisher Scientific (Kandel, Germany). Solutions of the test compounds were also prepared in acetonitrile at 400 µM concentrations. To a mixture of 0.5 mL test compound solution (40 μM final concentration) and 3.5 mL acetonitrile, 1 mL of the metal solution (CuCl2, FeCl2·4H2O, or Zn(NO3)2·6H2O; 40 µM final concentration) was added. The solution was incubated at 25 °C for 30 min and then the absorption spectra were recorded at 25 °C in a 1 cm quartz cell. The control was prepared by mixing 0.5 mL tested compound solution and 4.5 mL acetonitrile.

[8] = compound 20 μM, mean ± SEM, n = 3, n.a. = not active

T2 sequence (P22303 32-617 isoform P22303-2 limits assumed): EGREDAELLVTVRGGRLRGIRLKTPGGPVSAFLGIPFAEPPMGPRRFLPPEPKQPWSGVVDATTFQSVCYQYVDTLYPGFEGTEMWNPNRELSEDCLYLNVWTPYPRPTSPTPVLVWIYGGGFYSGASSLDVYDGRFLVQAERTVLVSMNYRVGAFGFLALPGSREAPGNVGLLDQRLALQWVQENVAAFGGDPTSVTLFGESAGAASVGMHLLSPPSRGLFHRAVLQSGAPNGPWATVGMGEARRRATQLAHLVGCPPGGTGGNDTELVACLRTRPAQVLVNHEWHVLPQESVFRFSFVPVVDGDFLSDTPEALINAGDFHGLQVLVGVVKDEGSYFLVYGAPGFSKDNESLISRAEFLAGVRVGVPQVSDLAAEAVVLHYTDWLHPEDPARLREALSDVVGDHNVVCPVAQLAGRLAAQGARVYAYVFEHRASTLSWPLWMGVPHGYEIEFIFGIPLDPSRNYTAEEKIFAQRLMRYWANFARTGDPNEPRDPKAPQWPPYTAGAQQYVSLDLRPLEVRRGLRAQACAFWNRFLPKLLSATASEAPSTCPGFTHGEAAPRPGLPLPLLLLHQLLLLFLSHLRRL
T1 sequence (P81908 whole entry): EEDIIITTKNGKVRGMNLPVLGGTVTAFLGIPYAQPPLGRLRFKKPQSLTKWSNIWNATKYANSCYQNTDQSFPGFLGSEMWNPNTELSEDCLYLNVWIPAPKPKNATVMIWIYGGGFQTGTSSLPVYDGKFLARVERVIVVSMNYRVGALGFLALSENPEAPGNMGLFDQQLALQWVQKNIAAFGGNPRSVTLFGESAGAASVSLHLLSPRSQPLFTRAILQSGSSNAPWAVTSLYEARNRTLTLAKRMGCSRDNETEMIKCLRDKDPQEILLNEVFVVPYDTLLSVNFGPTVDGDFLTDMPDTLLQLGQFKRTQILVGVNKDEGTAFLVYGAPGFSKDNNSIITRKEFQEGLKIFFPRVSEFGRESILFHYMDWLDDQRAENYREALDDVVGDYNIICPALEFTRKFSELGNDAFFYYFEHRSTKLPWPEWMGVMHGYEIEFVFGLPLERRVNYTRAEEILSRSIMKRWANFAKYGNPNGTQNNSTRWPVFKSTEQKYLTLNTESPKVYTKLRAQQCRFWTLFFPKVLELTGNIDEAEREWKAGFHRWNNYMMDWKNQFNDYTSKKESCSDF
T3 sequence (O42275 24-633): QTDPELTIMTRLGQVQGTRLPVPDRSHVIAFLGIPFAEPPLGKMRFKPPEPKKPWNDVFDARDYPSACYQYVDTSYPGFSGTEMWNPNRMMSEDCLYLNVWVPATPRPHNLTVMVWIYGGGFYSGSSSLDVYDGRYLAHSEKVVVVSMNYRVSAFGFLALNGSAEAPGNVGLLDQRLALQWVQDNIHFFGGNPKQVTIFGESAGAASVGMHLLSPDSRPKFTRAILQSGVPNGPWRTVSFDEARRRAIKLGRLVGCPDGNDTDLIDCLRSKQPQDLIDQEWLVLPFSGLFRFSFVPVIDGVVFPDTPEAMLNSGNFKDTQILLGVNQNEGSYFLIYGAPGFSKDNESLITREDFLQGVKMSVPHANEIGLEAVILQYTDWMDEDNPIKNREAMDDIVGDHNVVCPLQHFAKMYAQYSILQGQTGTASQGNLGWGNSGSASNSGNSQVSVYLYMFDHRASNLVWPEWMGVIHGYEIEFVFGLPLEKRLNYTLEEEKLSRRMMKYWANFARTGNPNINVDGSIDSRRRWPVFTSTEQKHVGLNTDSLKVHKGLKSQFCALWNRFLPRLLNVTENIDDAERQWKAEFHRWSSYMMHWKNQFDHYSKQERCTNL

Structure (SMILES)	FRAP (Fe3+-reducing activity), TE [1]	ABTS•+-scavenging activity, TEAC [2]	IC50 [2] [nM]	inhibition at 20 µM [3] [%]	inhibition at 20 µM [4, 8] [%]	IC50 [3]	inhibition at 20 µM [4] [%]	Inhibitory activity against CES, % inhibition at 20 μM [5] [%]	IC50 ([4]; mean ± SEM, n = 3)	inhibition at 20 µM [6] [%]	Metal-chelating ability for Cu2+, Fe2+ and Zn2+ [7]
CCCCCCN/C(C)=C(\N=Nc1ccc(C)cc1)C(=O)c1ccccc1 [2b, (3Z)-3-(Hexylamino)-2-[(4-methylphenyl)diazenyl]-1-phenylbut-2-en-1-one]	0.52 ± 0.02	0.98 ± 0.03	18900 ± 1200	25 ± 2	12.5 ± 0.6						
CCCCCCN/C(C)=C(\N=N\c1ccc(C)cc1)C(C)=O [2a, (3Z)-4-(Hexylamino)-3-[(E)-(4-methylphenyl)diazenyl]pent-3-en-2-one]	0.57 ± 0.02	0.94 ± 0.03	20300 ± 1600			18100 ± 800 nM	22.9 ± 1.2				
Cc1c(C)c2c(c(C)c1O)CCC(C)(C(=O)O)O2 (stereo not shown) [Trolox, 6-hydroxy-2,5,7,8-tetramethylchroman-2-carboxylic acid, reference compound]	1.0	1.0	19700 ± 800								
C/C(NCCCCCCNc1c2c(nc3ccccc13)CCCC2)=C(/N=N/c1ccc(C)cc1)C(=O)c1ccccc1 [7b]	0.51 ± 0.06	0.91 ± 0.03	21800 ± 1600			47 ± 3.8 nM		33.2 ± 1.7	380 ± 3 nM	15.5 ± 1.3	
C/C(NCCCCCCNc1c2c(nc3ccccc13)CCCC2)=C(/N=N/c1ccc(C)cc1)C(=O)C(F)(F)F [8b]	0.11 ± 0.03	1.00 ± 0.04	17900 ± 600			125 ± 6 nM		19.9 ± 2.9	280 nM and 276 nM	14.4 ± 1.3	
C/C(NCCCCCCCCNc1c2c(nc3ccccc13)CCCC2)=C(/N=N/c1ccc(C)cc1)C(=O)C(F)(F)F [8c]	0.12 ± 0.01	0.95 ± 0.03	19400 ± 1300			98.5 ± 1.3 nM		12.2 ± 1.7	240 nM and 241 nM	16.2 ± 1.4	
C/C(NCCCCNc1c2c(nc3ccccc13)CCCC2)=C(/N=N/c1ccc(C)cc1)C(=O)c1ccccc1 [7a]	0.43 ± 0.04	0.90 ± 0.04	22300 ± 1900			36 nM and 35.9 nM		31.2 ± 2.9	889 ± 7 nM	11.9 ± 0.8	metal-chelating ability
CCCCCCN/C(C)=C(\N=N\c1ccc(C)cc1)C(=O)C(F)(F)F [2c, (3Z)-4-(Hexylamino)-3-[(E)-(4-methylphenyl)diazenyl]-1,1,1-trifluoropent-3-en-2-one]	not active	1.00 ± 0.04	19900 ± 1400	35.3 ± 2.7	14.7 ± 3.2						
O=C1O[C@H]([C@@H](O)CO)C(O)=C1O [Ascorbic acid, ascorbic acid, reference compound]	1.23 ± 0.11	0.96 ± 0.02	22600 ± 1300								
C/C(NCCCCCCCCNc1c2c(nc3ccccc13)CCCC2)=C(/N=N/c1ccc(C)cc1)C(=O)c1ccccc1 [7c]	0.58 ± 0.03	0.92 ± 0.03	21800 ± 1600			74.5 ± 6 nM		23.4 ± 2.2	250 nM and 249 nM	14.1 ± 1.1	
CC(=O)C(/N=N/c1ccc(C)cc1)=C(\C)NCCCCCCCCNc1c2c(nc3ccccc13)CCCC2 [6c]	0.49 ± 0.05	0.80 ± 0.03	27500 ± 1600			54 nM and 54.3 nM		30.1 ± 1.2	270 nM and 272 nM	17.8 ± 1.4	
